Patent US6361788B1, “Synergistic biocide composition” (Thor Chemie GmbH, priority 1997, dated 2002)
Entries after “also recorded” stand apart in the source; their conditions may differ.

Tests used:
Assay type in all cases: cell-based
[1] = system: Pseudomonas putida; test: MIC and synergy of MIT and BIT in Müller-Hinton broth, 48 h; conditions: for growth of the microorganism: MIT ppm = row head c0; for growth of the microorganism: key: growth of the microorganism took place (symbol '+'); or not (symbol '−')
Experimental: (§1) The synergy index is calculated according to the method of F. C. Kull et al., Applied Microbiology, Vol. 9 (1961), p. 538. Here the synergy index is calculated using the following formula:
(§2) Synergy index SI=Qa/QA+Qb/QB.
The synergy of the two active substances MIT and BIT against the microorganism Pseudomonas putida is shown as in Example 1.
The test batches again contained a Müller-Hinton broth as a nutrient medium. The cell density was 10^6 cells/mL. The incubation time was 48 h at 25° C. Each sample was incubated on an incubation shaker at 120 rpm.

[2] = system: Klebsiella pneumoniae; test: MIC and synergy of MIT and BIT in Müller-Hinton broth, 72 h; conditions: for growth of the microorganism: MIT ppm = row head c0; for growth of the microorganism: key: growth of the microorganism took place (symbol '+'); or not (symbol '−')
Experimental: as §1, §2
The synergy of the two active substances MIT and BIT against the microorganism Klebsiella pneumoniae is shown as in example 1.
The test batches again contained a Müller-Hinton broth as a nutrient medium. The cell density was 10^6 cells/mL. The incubation time was 72 h at 25° C. Each sample was incubated on an incubation shaker at 120 rpm.

[3] = system: standard bacterial inoculum; test: Preservation of coating composition A, repeated bacterial inoculation, streak evaluation
Source text: Biocide compositions according to the invention were incorporated into a coating composition A that is used for coating building facades. This coating composition is a plaster based on an aqueous polymer dispersion commercially available under the designation “Granol KR 3.0” (company Steinwerke Kupferdreh GmbH). The addition of the biocide composition of the invention served to preserve the coating composition before its use, i.e., while it was stored in its packing drums.
(§3) The biocides shown in Table XI below were added respectively to 50 g of coating composition A. The stated amounts of biocide refer to the amount of coating composition A. In the MIT/BIT mixtures, the two biocides were present in a weight ratio of 1:1.
(§4) Apart from a blank test without addition of biocide, 1 mL of a standard bacterial inoculum that contained the following bacterial strains was added to each sample of coating composition A:
(§5) The cell density of the inoculum was 10^10 to 3·10^10 cells/mL, and the cell density of the samples was 2·10^8 to 6·10^8 cells/g. The samples were held at 30° C. for 7 days. Then a streak of each sample was produced on a nutrient agar plate, held at 30° C. for 48 h, and then evaluated for bacterial growth. The following evaluation scale was used:
(§6) When the bacterial growth was evaluated as below 6, a second bacterial inoculum of the above-mentioned type was added to the corresponding original 50 g sample and it was again held at 30° C. for 7 days. Then a streak was again produced on a nutrient agar plate, which was again evaluated for its bacterial growth after a holding time of 48 h at 30° C.
(§7) When the bacterial growth of the streak was evaluated as 6 for a sample, the testing of this sample was terminated. As long as a sample had not reached this number, a bacterial inoculum was again added in the above-mentioned manner and the sample was held and tested by means of a streak. This procedure was repeated as necessary, with a maximum of 4 bacterial inocula being added per sample.

[4] = system: standard bacterial inoculum; test: Preservation of coating composition B, repeated bacterial inoculation, streak evaluation
Experimental: as §3, §4, §5, §6, §7
Example 9 was repeated, but using coating composition B instead of coating composition A.
Coating composition B is a particularly low-emission plaster based on a polymer dispersion commercially available under the designation “Granol KR 3.0 LF” (company Steinwerke Kupferdreh GmbH).

[5] = system: Aspergillus niger; test: MIC and synergy of MIT and BIT in Sabouraud maltose broth, 96 h; conditions: for growth of the microorganism: MIT ppm = row head c0; for growth of the microorganism: key: growth of the microorganism took place (symbol '+'); or not (symbol '−')
Experimental: as §1, §2
The synergy of the two active substances MIT and BIT against the microorganism Aspergillus niger is shown as in Example 1.
(§8) The test batches contained a Sabouraud maltose broth as a nutrient medium. The spore concentration was 10^6 per mL. The incubation time was 96 h at 25° C. Each sample was incubated on an incubation shaker at 120 rpm.

[6] = system: Penicillium funiculosum; test: as above; conditions: for growth of the microorganism: MIT ppm = row head c0; for growth of the microorganism: key: growth of the microorganism took place (symbol '+'); or not (symbol '−')
Experimental: as §1, §2
The synergy of the two active substances MIT and BIT against the microorganism Penicillium funiculosum is shown as in Example 1.
as §8

[7] = share of the BIT/MIT mixture at MIC, 96 h

With `O=c1[nH]sc2ccccc12` [BIT, 1,2-benzisothiazolin-3-one] the “MIC at Total concentration BIT + MIT Qa + Qb” value ([1]; 48 h) was 60 ppm, the Qa/QA ([1]; 48 h) was 1.00 and the “Synergy index Qa/QA + Qb/QB” value ([1]; 48 h) was 1.00. For the same molecule, the “growth of the microorganism” value ([1]; BIT 0.5 ppm, 48 h) was “+”, the “growth of the microorganism” value ([1]; BIT 1 ppm, 48 h) was “+” and the “growth of the microorganism” value ([1]; BIT 2.5 ppm, 48 h) was “+”. For the same molecule, the “growth of the microorganism” value ([1]; BIT 5 ppm, 48 h) was “+”, the “growth of the microorganism” value ([1]; BIT 7.5 ppm, 48 h) was “+” and the “growth of the microorganism” value ([1]; BIT 10 ppm, 48 h) was “+”. For the same molecule, the “growth of the microorganism” value ([1]; BIT 15 ppm, 48 h) was “+”, the “growth of the microorganism” value ([1]; BIT 20 ppm, 48 h) was “+” and the “growth of the microorganism” value ([1]; BIT 25 ppm, 48 h) was “+”. The “growth of the microorganism” value ([1]; BIT 30 ppm, 48 h) was “+”, the “growth of the microorganism” value ([1]; BIT 40 ppm, 48 h) was “+” and the “growth of the microorganism” value ([1]; BIT 50 ppm, 48 h) was “+”. For the same molecule, the “growth of the microorganism” value ([1]; BIT 60 ppm, 48 h) was “−”, the “growth of the microorganism” value ([1]; BIT 70 ppm, 48 h) was “−” and the “growth of the microorganism” value ([1]; BIT 80 ppm, 48 h) was “−”. The “MIC at BIT concentration Qa” value ([1]; BIT share of the BIT/MIT mixture at MIC, 48 h) was 60 ppm, the MIC value ([1]; used alone, 48 h at 25° C.) was 60 ppm and the “MIC at Total concentration BIT + MIT Qa + Qb” value ([2]; 72 h) was 25 ppm. The Qa/QA ([2]; 72 h) was 1.00, the “Synergy index Qa/QA + Qb/QB” value ([2]; 72 h) was 1.00 and the “growth of the microorganism” value ([2]; BIT 1 ppm, 72 h) was “+”. The “growth of the microorganism” value ([2]; BIT 2.5 ppm, 72 h) was “+”, the “growth of the microorganism” value ([2]; BIT 5 ppm, 72 h) was “+” and the “growth of the microorganism” value ([2]; BIT 7.5 ppm, 72 h) was “+”. For the same molecule, the “growth of the microorganism” value ([2]; BIT 10 ppm, 72 h) was “+”, the “growth of the microorganism” value ([2]; BIT 15 ppm, 72 h) was “+” and the “growth of the microorganism” value ([2]; BIT 20 ppm, 72 h) was “+”. The “growth of the microorganism” value ([2]; BIT 25 ppm, 72 h) was “−”, the “growth of the microorganism” value ([2]; BIT 30 ppm, 72 h) was “−” and the “growth of the microorganism” value ([2]; BIT 35 ppm, 72 h) was “−”. The “MIC at BIT concentration Qa” value ([2]; BIT share of the BIT/MIT mixture at MIC, 72 h) was 25 ppm, the MIC value ([2]; used alone, 72 h at 25° C.) was 25 ppm and the “Bacterial growth (7 days + 48 h after 4th inoculation)” value (from here on “Bacterial growth”) ([3]; biocide 0.005% by wt) was “full bacterial growth was reached already after the first inoculation; also recorded: (Growth already after 1st inoculation)”. The “Bacterial growth” value ([3]; biocide 0.01% by wt) was “(Growth already after 1st inoculation)”, the “Bacterial growth” value ([3]; biocide 0.015% by wt) was “after the second inoculation; also recorded: (Growth already after 2nd inoculation)” and the “Bacterial growth” value ([3]; biocide 0.02% by wt) was “(Growth already after 2nd inoculation)”. For the same molecule, the “Bacterial growth” value ([3]; biocide 0.03% by wt) was “after the third inoculation; also recorded: (Growth already after 3rd inoculation)”, the bacterial attack ([4]; all tested concentrations 0.005-0.03% by wt) was “complete bacterial attack could be observed after the third inoculation at the latest” and the “Bacterial growth” value ([4]; biocide 0.005% by wt) was “(Growth already after 1st inoculation)”. For the same molecule, the “Bacterial growth” value ([4]; biocide 0.01% by wt) was “(Growth already after #^st inoculation)”, the “Bacterial growth” value ([4]; biocide 0.015% by wt) was “(Growth already after 2nd inoculation)” and the “Bacterial growth” value ([4]; biocide 0.02% by wt) was “(Growth already after 2nd inoculation)”. For the same molecule, the “Bacterial growth” value ([4]; biocide 0.03% by wt) was “(Growth already after 3rd inoculation)”, the “MIC at Total concentration BIT + MIT Qa + Qb” value ([5]; 96 h) was 750 ppm and the Qa/QA ([5]; 96 h) was 1.00. The “Synergy index Qa/QA + Qb/QB” value ([5]; 96 h) was 1.00, the “growth of the microorganism” value ([5]; BIT 5 ppm, 96 h) was “+” and the “growth of the microorganism” value ([5]; BIT 10 ppm, 96 h) was “+”. The “growth of the microorganism” value ([5]; BIT 25 ppm, 96 h) was “+”, the “growth of the microorganism” value ([5]; BIT 50 ppm, 96 h) was “+” and the “growth of the microorganism” value ([5]; BIT 75 ppm, 96 h) was “+”. The “growth of the microorganism” value ([5]; BIT 100 ppm, 96 h) was “−”, the “growth of the microorganism” value ([5]; BIT 150 ppm, 96 h) was “−” and the “MIC at BIT concentration Qa” value [5, 7] was 750 ppm. For the same molecule, the MIC value ([5]; used alone, 96 h at 25° C.) was 100 ppm, the “MIC at Total concentration BIT + MIT Qa + Qb” value ([6]; 96 h) was 200 ppm and the Qa/QA ([6]; 96 h) was 1.00. For the same molecule, the “Synergy index Qa/QA + Qb/QB” value ([6]; 96 h) was 1.00, the “growth of the microorganism” value ([6]; BIT 10 ppm, 96 h) was “+” and the “growth of the microorganism” value ([6]; BIT 15 ppm, 96 h) was “+”. The “growth of the microorganism” value ([6]; BIT 20 ppm, 96 h) was “+”, the “growth of the microorganism” value ([6]; BIT 30 ppm, 96 h) was “+” and the “growth of the microorganism” value ([6]; BIT 40 ppm, 96 h) was “−”. The “growth of the microorganism” value ([6]; BIT 50 ppm, 96 h) was “−”, the “growth of the microorganism” value ([6]; BIT 75 ppm, 96 h) was “−” and the “MIC at BIT concentration Qa” value [6, 7] was 200 ppm. The MIC value ([6]; used alone, 96 h at 25° C.) was 40 ppm.
